Assay [1] deals with T1, DNA topoisomerase 1 (Homo sapiens) (UniProt P11387).
T1 sequence (whole entry): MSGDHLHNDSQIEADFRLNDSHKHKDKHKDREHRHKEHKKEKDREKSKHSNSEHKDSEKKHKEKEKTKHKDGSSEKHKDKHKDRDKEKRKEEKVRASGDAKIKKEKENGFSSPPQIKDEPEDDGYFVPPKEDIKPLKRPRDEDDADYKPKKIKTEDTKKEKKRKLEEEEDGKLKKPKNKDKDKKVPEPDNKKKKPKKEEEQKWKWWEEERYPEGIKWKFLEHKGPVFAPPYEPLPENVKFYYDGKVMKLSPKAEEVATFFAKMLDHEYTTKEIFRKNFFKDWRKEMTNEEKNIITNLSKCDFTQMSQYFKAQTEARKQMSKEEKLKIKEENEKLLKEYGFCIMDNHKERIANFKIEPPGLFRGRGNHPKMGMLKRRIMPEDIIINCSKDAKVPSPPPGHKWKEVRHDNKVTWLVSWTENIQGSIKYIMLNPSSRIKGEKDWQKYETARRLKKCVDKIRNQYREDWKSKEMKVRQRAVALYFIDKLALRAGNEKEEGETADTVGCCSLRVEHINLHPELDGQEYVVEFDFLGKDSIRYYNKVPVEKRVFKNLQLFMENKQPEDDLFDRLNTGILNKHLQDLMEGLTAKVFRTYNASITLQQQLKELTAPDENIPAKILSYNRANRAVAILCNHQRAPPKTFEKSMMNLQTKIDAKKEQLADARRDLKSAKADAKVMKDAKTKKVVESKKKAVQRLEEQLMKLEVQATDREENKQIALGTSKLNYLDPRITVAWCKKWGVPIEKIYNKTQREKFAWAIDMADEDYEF
Briefly: Activity at recombinant top1 (unknown origin) assessed as DNA cleavage using 3'-[32P]-labeled 117-bp DNA as substrate at 0.1 to 100 uM after 20 mins by SDS-PAGE.

A short description of assay [2]: Cytotoxicity against human NCI60 cells assessed as cell growth at 10 uM after 48 hrs. The class given is functional. Particulars: NCI60, 48 h, read-out: Activity.
Assay [3] can be described thus: Antiproliferative activity against human HOP62 cells after 48 hrs. The class given is functional. To be noted: HOP-62, 48 h.
The nature of assay [4]: Antiproliferative activity against human HCT116 cells after 48 hrs. The class given is functional. Particulars: HCT-116, 48 h.
The nature of assay [5]: Antiproliferative activity against human SF539 cells after 48 hrs. The class given is functional. Particulars: SF-539, 48 h.
The nature of assay [6]: Antiproliferative activity against human UACC62 cells after 48 hrs. It counts as functional. Particulars: UACC-62, 48 h.
The nature of assay [7]: Antiproliferative activity against human OVCAR3 cells after 48 hrs. The class given is functional. To be noted: OVCAR-3, 48 h.
For another assay, the system named is SN12C. Briefly: Antiproliferative activity against human SN12C cells after 48 hrs. The class given is functional.
The nature of assay [8]: Antiproliferative activity against human DU145 cells after 48 hrs. The class given is functional. To be noted: DU-145, 48 h.
A further assay has as its system MCF7. The assay can be described thus: Antiproliferative activity against human MCF7 cells after 48 hrs. It counts as functional. To be noted: MCF7, 48 h.
Assay [9] has as its target Tyrosyl-DNA phosphodiesterase 1 (Homo sapiens, UniProt Q9NUW8).
Description: Inhibition of recombinant TDP1 (unknown origin) using single stranded 5'-[32P]-labeled DNA containing 3'-phosphotyrosine as substrate after 15 mins by PAGE
Assay [10] has as its target T2, Tyrosyl-DNA phosphodiesterase 2 (Homo sapiens, UniProt O95551).
T2 sequence (O95551 whole entry): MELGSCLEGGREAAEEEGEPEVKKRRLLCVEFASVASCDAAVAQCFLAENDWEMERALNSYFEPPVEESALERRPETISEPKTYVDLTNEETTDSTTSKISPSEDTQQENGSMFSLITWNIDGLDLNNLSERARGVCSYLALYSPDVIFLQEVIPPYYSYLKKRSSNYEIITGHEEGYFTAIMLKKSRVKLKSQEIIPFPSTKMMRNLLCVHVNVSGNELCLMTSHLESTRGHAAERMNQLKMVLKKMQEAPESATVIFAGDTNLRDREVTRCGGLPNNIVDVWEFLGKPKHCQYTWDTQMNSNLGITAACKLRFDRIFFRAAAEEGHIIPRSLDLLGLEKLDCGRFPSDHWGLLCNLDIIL
Description: Inhibition of human recombinant TDP2 using 19-mer single stranded DNA containing 5'-phosphotyrosine as substrate after 15 mins by PAGE

Assay [11] in a line: Antiproliferative activity against human NCI60 cells after 48 hrs. The class given is functional. Particulars: NCI60, 48 h.

The values below come from ChEMBL document CHEMBL3808281, “Investigation of the Structure-Activity Relationships of Aza-A-Ring Indenoisoquinoline Topoisomerase I Poisons” (J Med Chem, 2016).

Molecules are shown by their SMILES.

Chain of Tyrosyl-DNA phosphodiesterase 1 (Q9NUW8 whole entry): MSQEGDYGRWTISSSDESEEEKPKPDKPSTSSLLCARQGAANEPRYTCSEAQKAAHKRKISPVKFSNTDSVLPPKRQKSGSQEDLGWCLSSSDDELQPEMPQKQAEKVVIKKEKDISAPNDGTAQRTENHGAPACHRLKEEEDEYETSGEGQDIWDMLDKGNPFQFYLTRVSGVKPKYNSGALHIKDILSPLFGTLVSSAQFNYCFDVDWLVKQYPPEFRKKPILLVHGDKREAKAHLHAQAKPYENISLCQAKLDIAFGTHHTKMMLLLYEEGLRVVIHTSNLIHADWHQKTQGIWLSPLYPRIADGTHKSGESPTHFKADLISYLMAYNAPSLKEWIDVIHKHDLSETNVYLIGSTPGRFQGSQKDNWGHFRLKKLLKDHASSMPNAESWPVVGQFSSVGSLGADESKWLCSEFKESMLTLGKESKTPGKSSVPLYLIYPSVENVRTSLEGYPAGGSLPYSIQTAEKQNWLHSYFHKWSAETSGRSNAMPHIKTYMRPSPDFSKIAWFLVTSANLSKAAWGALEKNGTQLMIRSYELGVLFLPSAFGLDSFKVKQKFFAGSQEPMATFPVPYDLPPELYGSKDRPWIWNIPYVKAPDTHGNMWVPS

Regarding `O=C1c2ccccc2-c2c1c1ncccc1c(=O)n2C[C@H](O)CO`, in assay [1], the Activity was 20%.

`O=C1c2ccccc2-c2c1c1ncccc1c(=O)n2CCCn1ccnc1`: the growth at 10 µM in assay [2] was found to be 83.6%. In addition, the Activity in assay [1] was 50%.

As a reminder, the GI50 is the concentration that inhibits growth by half. Low values mean more potent growth inhibition, high ones less potent growth inhibition. Regarding `NCCCn1c2c(c3cccnc3c1=O)C(=O)c1ccccc1-2`, in assay [2], the growth at 10 µM turned out to be 12.2%. Besides, the concentration for 50% growth inhibition (GI50) stood at 1.45 µM in assay [3]; 0.537 µM in assay [4]; 1.38 µM in assay [5]; 1.35 µM in assay [6]; 2.29 µM in assay [7]; 1.12 µM with SN12C. Further, the concentration for 50% growth inhibition (GI50) in assay [8] is 1.91 µM; in the assay with MCF7, 0.417 µM. In addition, the Activity in assay [1] stood at 50%.

For `O=C1c2ccccc2-c2c1c1cccnc1c(=O)n2CCCN1CCOCC1`, the growth at 10 µM in assay [2] was 42.9%. Besides, the Activity in assay [1] turned out to be 75%.

With `CN(C)CCCn1c2c(c3ccncc3c1=O)C(=O)c1ccccc1-2`, the GI50 in [3] came to 0.871 µM; in assay [4] it was 0.38 µM; in assay [6], 1.23 µM; in [7] it was 2 µM; in the assay on SN12C it was 0.955 µM; in assay [8], 0.977 µM. For the same compound, in the assay on MCF7, halving of growth (GI50) required 0.331 µM.

For `NCCCn1c2c(c3ncccc3c1=O)C(=O)c1ccccc1-2`, the Activity in assay [1] was 50%.

As usually defined, the IC50 is the midpoint of a concentration-inhibition curve. As for `O=C1c2ccccc2-c2c1c1ccncc1c(=O)n2C[C@H](O)CO`, the Activity in [1] turned out to be 50%. The IC50 in [9] and in assay [10] was more than 111 µM in each case.

On to `NCCCn1c2c(c3ccncc3c1=O)C(=O)c1ccccc1-2`, for which the Activity in [1] is 0%. In addition, in [10], 111 µM corresponded to half-maximal inhibition (IC50).

As to `O=C1c2ccccc2-c2c1c1cnccc1c(=O)n2CCCn1ccnc1`, the growth at 10 µM in [2] was 67.8%. In assay [1], the Activity was 50%.

Consider `CN(C)CCCn1c2c(c3cccnc3c1=O)C(=O)c1ccccc1-2`, for which, in [2], the growth at 10 µM stood at 5.45%. In addition, the GI50 is 1.26 µM in [3]; 0.437 µM in [4]; 0.851 µM in assay [5]; 1.29 µM in assay [6]; 2.4 µM in assay [7]; 1.12 µM with SN12C. Also, the GI50 in [8] turned out to be 1.91 µM; with MCF7 it was 0.363 µM. The Activity in [1] came out at 75%. This compound registered an IC50 in [9] of 111 µM.

Regarding `O=C1c2ccccc2-c2c1c1cccnc1c(=O)n2CCCn1ccnc1`, the growth at 10 µM in assay [2] came out at 49.6%. In addition, the Activity in assay [1] stood at 75%.

As to `O=C1c2ccccc2-c2c1c1ccccc1c(=O)n2CCCN1CCOCC1`, in assay [11], it took 15.1 µM to inhibit growth by half (GI50). The Activity in [1] is 50%.

As to `CN(C)CCCn1c2c(c3ncccc3c1=O)C(=O)c1ccccc1-2`, the growth at 10 µM in assay [2] stood at 44.4%. In addition, in assay [1], the Activity was 50%.

Turning to `O=C1c2ccccc2-c2c1c1cnccc1c(=O)n2CCCN1CCOCC1`, in assay [1], the Activity was 75%.

On to `NCCCn1c2c(c3cnccc3c1=O)C(=O)c1ccccc1-2`, for which the Activity in [1] was determined as 50%. In [10], this compound returned an IC50 of 111 µM.

Compound `NCCCn1c2c(c3ccccc3c1=O)C(=O)c1ccccc1-2` returned a GI50 in assay [11] of 0.32 µM. Also, in [1], the Activity was found to be 75%.

As to `O=C1c2ccccc2-c2c1c1cnccc1c(=O)n2C[C@H](O)CO`, in [2], the growth at 10 µM stood at 85.5%. The Activity in [1] turned out to be 20%.

On to `O=C1c2ccccc2-c2c1c1ccncc1c(=O)n2CCCn1ccnc1`, for which, in assay [2], the growth at 10 µM was found to be 47.5%.

In [11], `O=C1c2ccccc2-c2c1c1ccccc1c(=O)n2C[C@H](O)CO` showed a GI50 of 8.71 µM. In addition, the Activity in [1] stood at 75%.

The compound `CC[C@@]1(O)C(=O)OCc2c1cc1n(c2=O)Cc2cc3ccccc3nc2-1` [CAMPTOTHECIN] came in with a GI50 in assay [7] of 0.22 µM.

`O=C1c2ccccc2-c2c1c1ncccc1c(=O)n2CCCN1CCOCC1`: the growth at 10 µM in assay [2] was found to be 87.9%. Further, in [1], the Activity turned out to be 50%.

`CN(C)CCCn1c2c(c3cnccc3c1=O)C(=O)c1ccccc1-2`: the growth at 10 µM in assay [2] was -8.83%. Moreover, the GI50 worked out at 0.398 µM in [3]; 0.245 µM in [4]; 0.38 µM in assay [5]; 0.309 µM in assay [6]; 1.1 µM in assay [7]; 0.288 µM in the assay with SN12C. For the same compound, the results for the GI50 (in assay [8]; in the assay on MCF7) were 0.49 µM and 0.245 µM, respectively. Further, the Activity in assay [1] came to 50%.

As to `CN(C)CCCn1c2c(c3ccccc3c1=O)C(=O)c1ccccc1-2`, the Activity in assay [1] was 75%.

As to `O=C1c2ccccc2-c2c1c1cccnc1c(=O)n2C[C@H](O)CO`, the growth at 10 µM in assay [2] came out at 61.7%. Further, the Activity in [1] was found to be 20%.

The compound `O=C1c2ccccc2-c2c1c1ccccc1c(=O)n2CCCn1ccnc1` showed a 50% growth inhibitory concentration (GI50) in [11] of 1.86 µM. Moreover, the Activity in assay [1] was 100%.
